Assay results as given in the NIST ThermoML archive (doi:10.1007/s10765-005-8101-x).
± gives the expanded uncertainty stated by the source. Values belong to the compound of their own block, whether it stands above or below them.

Key:
[1] = xn = mol fraction of the nth substance listed; settings: 298.15 K, 101 kPa, Liquid
[2] = 298.15 K; 101.33 kPa; Liquid

Structure (SMILES): CCCCCCO [hexan-1-ol] + CC(C)O
mass density ([1]; x2 = 0.039): 814.4 ± 1.2 kg/m3
speed of sound ([1]; x2 = 0.039): 1299.6 ± 5.9 m/s
mass density ([1]; x2 = 0.1037): 813 ± 1.1 kg/m3
speed of sound ([1]; x2 = 0.1037): 1292.9 ± 5.9 m/s
mass density ([1]; x2 = 0.2075): 810.57 ± 1.1 kg/m3
speed of sound ([1]; x2 = 0.2075): 1281.1 ± 5.8 m/s
mass density ([1]; x2 = 0.3051): 808.2 ± 1.1 kg/m3
speed of sound ([1]; x2 = 0.3051): 1269.2 ± 5.7 m/s
mass density ([1]; x2 = 0.4032): 805.42 ± 1.1 kg/m3
speed of sound ([1]; x2 = 0.4032): 1255.9 ± 5.7 m/s
mass density ([1]; x2 = 0.5067): 802.47 ± 1.1 kg/m3
speed of sound ([1]; x2 = 0.5067): 1241.4 ± 5.6 m/s
mass density ([1]; x2 = 0.6044): 799.08 ± 1 kg/m3
speed of sound ([1]; x2 = 0.6044): 1225 ± 5.5 m/s
mass density ([1]; x2 = 0.7047): 795.43 ± 1 kg/m3
speed of sound ([1]; x2 = 0.7047): 1207.3 ± 5.4 m/s
mass density ([1]; x2 = 0.8059): 791.12 ± 1 kg/m3
speed of sound ([1]; x2 = 0.8059): 1186.8 ± 5.4 m/s
mass density ([1]; x2 = 0.9081): 786.44 ± 1 kg/m3
speed of sound ([1]; x2 = 0.9081): 1164.3 ± 5.3 m/s

Structure (SMILES): CCCCO [butan-1-ol] + CC(C)O
mass density ([1]; x2 = 0.0596): 804.62 ± 0.95 kg/m3
speed of sound ([1]; x2 = 0.0596): 1235.6 ± 5.5 m/s
mass density ([1]; x2 = 0.1039): 803.68 ± 0.95 kg/m3
speed of sound ([1]; x2 = 0.1039): 1231.8 ± 5.5 m/s
mass density ([1]; x2 = 0.2093): 801.62 ± 0.96 kg/m3
speed of sound ([1]; x2 = 0.2093): 1223.2 ± 5.4 m/s
mass density ([1]; x2 = 0.3024): 799.57 ± 0.96 kg/m3
speed of sound ([1]; x2 = 0.3024): 1214.8 ± 5.4 m/s
mass density ([1]; x2 = 0.3977): 797.49 ± 0.97 kg/m3
speed of sound ([1]; x2 = 0.3977): 1206.1 ± 5.4 m/s
mass density ([1]; x2 = 0.5033): 794.92 ± 0.98 kg/m3
speed of sound ([1]; x2 = 0.5033): 1195.9 ± 5.4 m/s
mass density ([1]; x2 = 0.599): 792.68 ± 0.98 kg/m3
speed of sound ([1]; x2 = 0.599): 1186.5 ± 5.3 m/s
mass density ([1]; x2 = 0.6946): 790.21 ± 0.99 kg/m3
speed of sound ([1]; x2 = 0.6946): 1176.4 ± 5.3 m/s
mass density ([1]; x2 = 0.8062): 787.19 ± 1 kg/m3
speed of sound ([1]; x2 = 0.8062): 1164.1 ± 5.3 m/s
mass density ([1]; x2 = 0.8938): 784.58 ± 1 kg/m3
speed of sound ([1]; x2 = 0.8938): 1153.6 ± 5.2 m/s

Structure (SMILES): CC(C)O [propan-2-ol]
mass density [2]: 781.91 ± 0.62 kg/m3
speed of sound [2]: 1141.3 ± 2.7 m/s

Structure (SMILES): CCCCCCO [hexan-1-ol]
mass density [2]: 815.15 ± 1.2 kg/m3
speed of sound [2]: 1303.6 ± 5.9 m/s

Other lines, results leading:

mass density ([1]; x2 = 0.0862): 819.96 ± 1.4 kg/m3
speed of sound ([1]; x2 = 0.0862): 1338.7 ± 6.4 m/s
mass density ([1]; x2 = 0.2078): 817.18 ± 1.4 kg/m3
speed of sound ([1]; x2 = 0.2078): 1324.2 ± 6.2 m/s
mass density ([1]; x2 = 0.2977): 814.58 ± 1.3 kg/m3
speed of sound ([1]; x2 = 0.2977): 1311.6 ± 6.1 m/s
mass density ([1]; x2 = 0.4059): 811.74 ± 1.2 kg/m3
speed of sound ([1]; x2 = 0.4059): 1296 ± 6 m/s
mass density ([1]; x2 = 0.5012): 808.6 ± 1.2 kg/m3
speed of sound ([1]; x2 = 0.5012): 1279.4 ± 5.9 m/s
mass density ([1]; x2 = 0.5991): 804.77 ± 1.1 kg/m3
speed of sound ([1]; x2 = 0.5991): 1259.8 ± 5.7 m/s
mass density ([1]; x2 = 0.6994): 800.52 ± 1.1 kg/m3
speed of sound ([1]; x2 = 0.6994): 1237.7 ± 5.6 m/s
mass density ([1]; x2 = 0.7985): 795.28 ± 1.1 kg/m3
speed of sound ([1]; x2 = 0.7985): 1211.1 ± 5.5 m/s
mass density ([1]; x2 = 0.8993): 789.09 ± 1 kg/m3
speed of sound ([1]; x2 = 0.8993): 1179.3 ± 5.3 m/s
mass density ([1]; x2 = 0.9453): 785.8 ± 1 kg/m3
speed of sound ([1]; x2 = 0.9453): 1162.8 ± 5.3 m/s
Structure (SMILES): CCCCCCCCO [octan-1-ol] + CC(C)O

mass density [2]: 806.14 ± 0.59 kg/m3
speed of sound [2]: 1240.8 ± 2.9 m/s
Structure (SMILES): CCCCO [butan-1-ol]

mass density [2]: 800.62 ± 0.6 kg/m3
speed of sound [2]: 1208.1 ± 2.8 m/s
Structure (SMILES): CCCO [propan-1-ol]

mass density ([1]; x1 = 0.1051): 798.37 ± 0.97 kg/m3
speed of sound ([1]; x1 = 0.1051): 1201 ± 5.4 m/s
mass density ([1]; x1 = 0.195): 796.76 ± 0.97 kg/m3
speed of sound ([1]; x1 = 0.195): 1195.4 ± 5.3 m/s
mass density ([1]; x1 = 0.3049): 794.67 ± 0.98 kg/m3
speed of sound ([1]; x1 = 0.3049): 1187.9 ± 5.3 m/s
mass density ([1]; x1 = 0.4062): 792.8 ± 0.98 kg/m3
speed of sound ([1]; x1 = 0.4062): 1181.3 ± 5.3 m/s
mass density ([1]; x1 = 0.4941): 791.17 ± 0.99 kg/m3
speed of sound ([1]; x1 = 0.4941): 1175.4 ± 5.3 m/s
mass density ([1]; x1 = 0.6029): 789.12 ± 0.99 kg/m3
speed of sound ([1]; x1 = 0.6029): 1168 ± 5.3 m/s
mass density ([1]; x1 = 0.7067): 787.16 ± 1 kg/m3
speed of sound ([1]; x1 = 0.7067): 1161 ± 5.2 m/s
mass density ([1]; x1 = 0.8063): 785.31 ± 1 kg/m3
speed of sound ([1]; x1 = 0.8063): 1154.2 ± 5.2 m/s
mass density ([1]; x1 = 0.91): 783.37 ± 1 kg/m3
speed of sound ([1]; x1 = 0.91): 1147.5 ± 5.2 m/s
mass density ([1]; x1 = 0.9515): 782.54 ± 1 kg/m3
speed of sound ([1]; x1 = 0.9515): 1144.5 ± 5.2 m/s
Structure (SMILES): CC(C)O [propan-2-ol] + CCCO

mass density [2]: 821.72 ± 2.1 kg/m3
speed of sound [2]: 1347.9 ± 6.5 m/s
Structure (SMILES): CCCCCCCCO [octan-1-ol]
